How the values were obtained:
CPT2 = molecular target: T1, CPT2 (Homo sapiens, UniProt P23786); test: CoA consumption, DTNB at […] nm; type: biochemical; conditions: 2 mM CoA, 2 mM palmitoyl-L-carnitine, pH 7.5, 37 °C
T1 sequence (P23786 26-658): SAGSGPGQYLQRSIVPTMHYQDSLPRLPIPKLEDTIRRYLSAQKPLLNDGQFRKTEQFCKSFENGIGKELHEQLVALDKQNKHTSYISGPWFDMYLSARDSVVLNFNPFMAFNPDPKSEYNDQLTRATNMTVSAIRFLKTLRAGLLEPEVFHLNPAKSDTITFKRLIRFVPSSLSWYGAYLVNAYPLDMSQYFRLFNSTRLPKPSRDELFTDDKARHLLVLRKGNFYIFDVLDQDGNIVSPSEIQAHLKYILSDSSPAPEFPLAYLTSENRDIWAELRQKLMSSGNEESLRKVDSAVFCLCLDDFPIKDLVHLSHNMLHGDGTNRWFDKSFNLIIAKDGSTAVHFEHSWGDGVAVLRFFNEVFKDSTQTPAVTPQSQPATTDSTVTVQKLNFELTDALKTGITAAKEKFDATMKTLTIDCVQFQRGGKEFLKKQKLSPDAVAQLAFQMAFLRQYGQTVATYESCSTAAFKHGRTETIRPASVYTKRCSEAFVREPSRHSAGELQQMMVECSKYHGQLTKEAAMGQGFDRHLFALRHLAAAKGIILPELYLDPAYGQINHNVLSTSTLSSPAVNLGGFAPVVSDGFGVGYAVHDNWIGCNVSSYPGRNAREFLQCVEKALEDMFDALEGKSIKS

[1] = molecular target: T2, TKTL1 (transketolase-like-1) (Homo sapiens, UniProt P51854); test: biolayer interferometry, His-tagged protein on anti-His biosensors, […] fit; type: binding; conditions: PBST, 30 °C, 0.82-200 µM ligand; KD = kd/ka
T2 construct: CDS in pET-22b(+), His-tagged, E. coli BL21(DE3), Ni-NTA; tag kept (captured on anti-His biosensors)
T2 sequence (P51854 1-596): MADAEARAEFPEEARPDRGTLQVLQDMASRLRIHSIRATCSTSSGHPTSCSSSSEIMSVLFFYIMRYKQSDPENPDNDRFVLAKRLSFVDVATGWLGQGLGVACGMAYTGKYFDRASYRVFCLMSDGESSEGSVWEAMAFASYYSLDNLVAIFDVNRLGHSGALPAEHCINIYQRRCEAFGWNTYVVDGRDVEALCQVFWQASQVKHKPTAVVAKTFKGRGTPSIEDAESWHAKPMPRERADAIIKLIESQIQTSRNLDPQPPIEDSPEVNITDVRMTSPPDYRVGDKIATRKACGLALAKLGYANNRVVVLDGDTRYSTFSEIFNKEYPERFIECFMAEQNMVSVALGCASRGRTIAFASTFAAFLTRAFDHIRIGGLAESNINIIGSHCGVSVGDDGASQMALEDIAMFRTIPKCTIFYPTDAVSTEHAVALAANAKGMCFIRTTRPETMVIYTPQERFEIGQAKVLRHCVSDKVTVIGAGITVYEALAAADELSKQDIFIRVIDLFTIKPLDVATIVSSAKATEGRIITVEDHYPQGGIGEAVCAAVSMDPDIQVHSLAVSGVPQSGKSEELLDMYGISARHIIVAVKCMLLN

Compound | relative specific activity (CPT2) | Kd [1] [µM]
CC(C)(COP(=O)(O)OP(=O)(O)OC[C@H]1O[C@@H](n2cnc3c(N)ncnc32)[C@H](O)[C@@H]1OP(=O)(O)O)[C@@H](O)C(=O)NCCC(=O)NCCS [CoA] | CPT2 activity was assayed by measuring the decrease in CoA levels | 
O=S(=O)(O)OC[C@H]1OC(O)[C@H](O)[C@@H]1O (some centres unmarked) [R5S] |  | 8.58
